Laboratory results: the supplement of paper PMC10307832

Key:
Assay in all cases: relative viability (nuclei count vs DMSO), 5 days (fraction); higher = more cells survive
[1] = compound: C1CNCCC1C2=CC(=NN2)C3=CC=NC=C3 + NC(=O)Nc1cc(-c2cccc(F)c2)sc1C(=O)N[C@H]1CCCNC1 [AZD7762] (partner 0.2 µM)
Summary of the method: (§1)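 Lung cancer cell lines in 1536-well plates were dosed by pin tool the day after seeding, either with one drug alone or with a fixed anchor-drug dose plus five library-drug doses (not always all listed) in √10 steps. After 5 days, cells were fixed and their nuclei stained in one step (final 0.05% Triton X-100, 1% formaldehyde, 1 ug/ml Hoechst), then counted on 4× images. Relative viability is the nuclei count in treated wells divided by that in vehicle wells. Values are medians of duplicate plates.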

[2] = compound: C[C@@H](N)c1ccc(C(=O)Nc2ccnc3[nH]ccc23)cc1 + CC(=O)c1c(C)c2cnc(Nc3ccc(N4CCNCC4)cn3)nc2n(C2CCCC2)c1=O [Palbociclib] (partner 0.5 µM)
Summary of the method: as §1

[3] = compound: C[C@@H](N)c1ccc(C(=O)Nc2ccnc3[nH]ccc23)cc1 + C[C@]1(O)C[C@@H](c2nc(-c3ccc4ccc(-c5ccccc5)nc4c3)c3c(N)nccn32)C1 [Linsitinib] (partner 1 µM)
Summary of the method: as §1

[4] = compound: O[C@H]1CC[C@H](Nc2ncc3nc(Nc4c(F)cc(F)cc4F)n([C@H]4CCOC4)c3n2)CC1 [Tanzisertib] + CC(=O)c1c(C)c2cnc(Nc3ccc(N4CCNCC4)cn3)nc2n(C2CCCC2)c1=O [Palbociclib] (partner 0.5 µM)
Summary of the method: as §1

Cell Line | relative viability ([1]; first compound 0.08 µM) | relative viability ([1]; first compound 0.8 µM) | relative viability ([1]; first compound 2.53 µM) | relative viability ([1]; first compound 8 µM) | relative viability ([2]; first compound 0.1265 µM) | relative viability ([2]; first compound 0.4 µM) | relative viability ([2]; first compound 1.265 µM) | relative viability ([2]; first compound 4 µM) | relative viability ([3]; first compound 0.04 µM) | relative viability ([3]; first compound 0.1265 µM) | relative viability ([3]; first compound 0.4 µM) | relative viability ([3]; first compound 1.265 µM) | relative viability ([3]; first compound 4 µM) | relative viability ([4]; first compound 0.08 µM) | relative viability ([4]; first compound 0.253 µM) | relative viability ([4]; first compound 0.8 µM) | relative viability ([4]; first compound 2.53 µM) | relative viability ([4]; first compound 8 µM) | relative viability ([2]; first compound 0.04 µM)
HCC-827 | 0.248 | 0.155 | 0.271 | 0.223 | 0.442 | 0.478 | 0.476 | 0.433 | 0.972 | 0.94 | 0.911 | 0.925 | 0.843 | 0.533 | 0.468 | 0.475 | 0.429 | 0.24 | –
HOP-62 | 0.67 | 1 | 0.751 | 0.462 | 0.463 | 0.449 | 0.411 | 0.397 | 0.972 | 0.983 | 0.88 | 1.03 | 0.954 | 0.411 | 0.451 | 0.464 | 0.491 | 0.525 | 0.454
IA-LM | – | – | – | – | – | – | – | – | 0.801 | 0.665 | 0.847 | 0.904 | 0.759 | – | – | – | – | – | –
LC-2-ad | 0.84 | 0.859 | 0.872 | 0.87 | 0.53 | 0.458 | 0.413 | 0.411 | 0.849 | 0.922 | 0.877 | 0.83 | 0.615 | 0.484 | 0.548 | 0.471 | 0.441 | 0.502 | 0.472
LCLC-97TM1 | 0.27 | 0.239 | 0.248 | 0.332 | 0.217 | 0.341 | 0.257 | 0.309 | 0.192 | 0.2 | 0.202 | 0.29 | 0.349 | 0.222 | 0.243 | 0.215 | 0.204 | 0.229 | 0.276
LCLC-103H | 0.724 | 0.738 | 0.904 | 0.837 | 0.478 | 0.433 | 0.423 | 0.388 | 1.18 | 1.06 | 1.2 | 1.01 | 1.11 | 0.519 | 0.466 | 0.486 | 0.456 | 0.465 | 0.473
NCI-H520 | – | – | – | – | 0.231 | 0.263 | 0.254 | 0.225 | 0.97 | 1.07 | 1.05 | 1.26 | 1.02 | 0.274 | 0.201 | 0.227 | 0.227 | 0.239 | 0.218
NCI-H522 | 0.764 | 0.915 | 0.832 | 0.879 | 0.986 | 1.1 | 1.02 | 0.874 | – | – | – | – | – | 1.05 | 0.984 | 0.959 | 1.13 | 0.899 | 1.03
NCI-H596 | 1.1 | 1.31 | 1.12 | 1.39 | – | – | – | – | 1.06 | 1.05 | 1.22 | 1.09 | 1.01 | – | – | – | – | – | –
NCI-H661 | – | – | – | – | 0.464 | 0.41 | 0.35 | 0.362 | 0.558 | 0.582 | 0.623 | 0.441 | 0.508 | 0.424 | 0.406 | 0.423 | 0.386 | 0.415 | 0.388
NCI-H1299 | – | – | – | – | – | – | – | – | 0.945 | 0.977 | 0.939 | 0.956 | 0.85 | – | – | – | – | – | –
NCI-H1563 | – | – | – | – | – | – | – | – | 1.25 | 1.16 | 1.14 | 1.13 | 1.27 | – | – | – | – | – | –
NCI-H1648 | 0.632 | 0.716 | – | 0.78 | 0.34 | 0.279 | 0.371 | 0.414 | – | – | – | – | – | 0.228 | 0.267 | 0.212 | 0.229 | 0.251 | 0.267
NCI-H1650 | – | – | – | – | 0.369 | 0.319 | 0.294 | 0.344 | – | – | – | – | – | 0.297 | 0.326 | 0.404 | 0.351 | 0.314 | 0.384
NCI-H1703 | – | 0.104 | – | 0.133 | – | – | – | – | 0.695 | 0.964 | 0.54 | – | 0.536 | – | – | – | – | – | –
NCI-H2009 | – | – | – | – | 0.2 | 0.213 | 0.153 | 0.154 | 1.21 | 1.06 | 1.01 | 0.966 | 0.709 | 0.201 | 0.209 | 0.263 | 0.278 | 0.187 | 0.194
NCI-H2023 | – | – | – | – | 0.409 | 0.424 | – | 0.35 | 0.734 | 0.691 | 0.724 | 0.798 | 0.663 | 0.335 | 0.406 | 0.406 | 0.325 | 0.328 | 0.371
NCI-H2170 | 0.746 | 0.909 | 0.949 | 0.897 | 0.412 | 0.423 | 0.417 | 0.395 | – | – | – | – | – | 0.415 | 0.39 | 0.36 | 0.428 | 0.406 | 0.423
NCI-H2228 | – | – | – | – | 0.806 | 0.909 | 0.352 | 0.839 | 0.63 | 0.587 | 0.62 | 0.637 | 0.82 | 1.12 | 0.818 | 0.684 | 0.741 | 0.655 | 0.808
NCI-H2342 | 0.572 | 0.351 | 0.57 | 0.591 | 0.53 | 0.596 | 0.498 | 0.532 | – | – | – | – | – | 0.539 | 0.542 | 0.52 | 0.497 | 0.582 | 0.513
SK-LU-1 | – | – | – | – | 0.44 | 0.465 | 0.273 | 0.338 | 1.09 | 1.1 | 1.19 | 0.956 | 0.637 | 0.455 | 0.388 | 0.37 | 0.384 | 0.389 | 0.42
SK-MES-1 | – | – | – | – | 0.365 | 0.306 | 0.337 | 0.271 | 1.06 | 0.996 | 0.976 | 0.768 | 0.815 | 0.327 | 0.314 | 0.345 | 0.298 | 0.281 | 0.312
SW 900 | 0.687 | – | 0.718 | 0.738 | 0.607 | 0.547 | 0.581 | 0.611 | – | – | – | – | – | – | 0.522 | 0.557 | 0.56 | 0.454 | 0.564
SW 1573 | – | – | – | – | 0.416 | 0.385 | 0.356 | 0.341 | 0.763 | 0.873 | 0.82 | 0.861 | 0.622 | 0.444 | 0.455 | 0.333 | 0.456 | 0.316 | 0.491
